Here are results for five molecules from the supplement of paper PMC10307832.

SMILES strings stand for the structures.

In one assay the test system is HOP-62. As to the kind of experiment: relative viability (nuclei count vs DMSO), 5 days (fraction); higher = more cells survive. The settings on record: first compound 8 µM. Put shortly: (§1)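 Nuclei were stained with Hoechst during a one-step fixation (final 0.05% Triton X-100, 1% formaldehyde, 1 ug/ml Hoechst) carried out 5 days after dosing, then counted on 4× images. The cells, lung cancer lines in 1536-well plates, had been dosed by pin tool the day after seeding with one drug alone or a fixed anchor-drug dose plus five library-drug doses (not always all listed) in √10 steps. Relative viability is the nuclei count in treated wells divided by that in vehicle wells, and each value is the median of duplicate plates.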
As to `CCCCCCCCCCCC1=C(O)C(=O)C=C(O)C1=O` [Embelin] + NC(=O)Nc1cc(-c2cccc(F)c2)sc1C(=O)N[C@H]1CCCNC1 [AZD7762] (partner 0.2 µM), the relative viability worked out at 0.363.

Regarding `CCCCCCCCCCCC1=C(O)C(=O)C=C(O)C1=O` [Embelin] + CC(=O)c1c(C)c2cnc(Nc3ccc(N4CCNCC4)cn3)nc2n(C2CCCC2)c1=O [Palbociclib] (partner 0.5 µM), the relative viability turned out to be 0.392.

A further assay has as its system SK-MES-1. The assay is described as above. The conditions noted are these: first compound 0.08 µM. Put shortly: as §1
Molecule `CCCCCCCCCCCC1=C(O)C(=O)C=C(O)C1=O` [Embelin] + N=C(N)NC(=N)NCCc1ccccc1 [Phenformin] (partner 250 µM) registered a relative viability of 0.67.

The molecule `CCCCCCCCCCCC1=C(O)C(=O)C=C(O)C1=O` [Embelin] + CCNC(=O)c1noc(-c2cc(C(C)C)c(O)cc2O)c1-c1ccc(CN2CCOCC2)cc1 [Luminespib] (partner 0.01 µM) yielded a relative viability of 0.723.

Molecule `CCCCCCCCCCCC1=C(O)C(=O)C=C(O)C1=O` [Embelin] + Cc1nc(Nc2ncc(C(=O)Nc3c(C)cccc3Cl)s2)cc(N2CCN(CCO)CC2)n1 [Dasatinib] (partner 0.075 µM) showed a relative viability of 0.372.

Consider `CCCCCCCCCCCC1=C(O)C(=O)C=C(O)C1=O` [Embelin] + CC(=O)c1c(C)c2cnc(Nc3ccc(N4CCNCC4)cn3)nc2n(C2CCCC2)c1=O [Palbociclib] (partner 0.5 µM), for which the relative viability stood at 0.366.

Still in this assay, the particulars now being: first compound 0.8 µM.
Take `CCCCCCCCCCCC1=C(O)C(=O)C=C(O)C1=O` [Embelin] + N=C(N)NC(=N)NCCc1ccccc1 [Phenformin] (partner 250 µM): the relative viability was found to be 0.694.

The molecule `CCCCCCCCCCCC1=C(O)C(=O)C=C(O)C1=O` [Embelin] + CCNC(=O)c1noc(-c2cc(C(C)C)c(O)cc2O)c1-c1ccc(CN2CCOCC2)cc1 [Luminespib] (partner 0.01 µM) had a relative viability of 1.05.

Take `CCCCCCCCCCCC1=C(O)C(=O)C=C(O)C1=O` [Embelin] + Cc1nc(Nc2ncc(C(=O)Nc3c(C)cccc3Cl)s2)cc(N2CCN(CCO)CC2)n1 [Dasatinib] (partner 0.075 µM): the relative viability worked out at 0.466.

For the molecule `CCCCCCCCCCCC1=C(O)C(=O)C=C(O)C1=O` [Embelin] + CC(=O)c1c(C)c2cnc(Nc3ccc(N4CCNCC4)cn3)nc2n(C2CCCC2)c1=O [Palbociclib] (partner 0.5 µM), the relative viability was 0.374.

Still in this assay, the particulars now being: first compound 2.53 µM.
For the molecule `CCCCCCCCCCCC1=C(O)C(=O)C=C(O)C1=O` [Embelin] + N=C(N)NC(=N)NCCc1ccccc1 [Phenformin] (partner 250 µM), the relative viability stood at 0.75.

Regarding `CCCCCCCCCCCC1=C(O)C(=O)C=C(O)C1=O` [Embelin] + CCNC(=O)c1noc(-c2cc(C(C)C)c(O)cc2O)c1-c1ccc(CN2CCOCC2)cc1 [Luminespib] (partner 0.01 µM), the relative viability came to 0.918.

Regarding `CCCCCCCCCCCC1=C(O)C(=O)C=C(O)C1=O` [Embelin] + Cc1nc(Nc2ncc(C(=O)Nc3c(C)cccc3Cl)s2)cc(N2CCN(CCO)CC2)n1 [Dasatinib] (partner 0.075 µM), the relative viability was 0.321.

As to `CCCCCCCCCCCC1=C(O)C(=O)C=C(O)C1=O` [Embelin] + CC(=O)c1c(C)c2cnc(Nc3ccc(N4CCNCC4)cn3)nc2n(C2CCCC2)c1=O [Palbociclib] (partner 0.5 µM), the relative viability was 0.321.

Staying with this assay, now noted: first compound 8 µM.
As to `CCCCCCCCCCCC1=C(O)C(=O)C=C(O)C1=O` [Embelin] + N=C(N)NC(=N)NCCc1ccccc1 [Phenformin] (partner 250 µM), the relative viability was found to be 0.585.

For `CCCCCCCCCCCC1=C(O)C(=O)C=C(O)C1=O` [Embelin] + CCNC(=O)c1noc(-c2cc(C(C)C)c(O)cc2O)c1-c1ccc(CN2CCOCC2)cc1 [Luminespib] (partner 0.01 µM), the relative viability came to 0.695.

In turn, `CCCCCCCCCCCC1=C(O)C(=O)C=C(O)C1=O` [Embelin] + Cc1nc(Nc2ncc(C(=O)Nc3c(C)cccc3Cl)s2)cc(N2CCN(CCO)CC2)n1 [Dasatinib] (partner 0.075 µM) gave a relative viability of 0.361.

In turn, `CCCCCCCCCCCC1=C(O)C(=O)C=C(O)C1=O` [Embelin] + CC(=O)c1c(C)c2cnc(Nc3ccc(N4CCNCC4)cn3)nc2n(C2CCCC2)c1=O [Palbociclib] (partner 0.5 µM) had a relative viability of 0.297.

Another assay relates to SW 900. Described as above. The conditions noted are these: first compound 0.08 µM. Put shortly: as §1
Molecule `CCCCCCCCCCCC1=C(O)C(=O)C=C(O)C1=O` [Embelin] + N=C(N)NC(=N)NCCc1ccccc1 [Phenformin] (partner 250 µM) had a relative viability of 0.778.

`CCCCCCCCCCCC1=C(O)C(=O)C=C(O)C1=O` [Embelin] + CCNC(=O)c1noc(-c2cc(C(C)C)c(O)cc2O)c1-c1ccc(CN2CCOCC2)cc1 [Luminespib] (partner 0.01 µM) returned a relative viability of 0.196.

`CCCCCCCCCCCC1=C(O)C(=O)C=C(O)C1=O` [Embelin] + Cc1nc(Nc2ncc(C(=O)Nc3c(C)cccc3Cl)s2)cc(N2CCN(CCO)CC2)n1 [Dasatinib] (partner 0.075 µM) showed a relative viability of 0.666.

`CCCCCCCCCCCC1=C(O)C(=O)C=C(O)C1=O` [Embelin] + NC(=O)Nc1cc(-c2cccc(F)c2)sc1C(=O)N[C@H]1CCCNC1 [AZD7762] (partner 0.2 µM) showed a relative viability of 0.556.

In the case of `CCCCCCCCCCCC1=C(O)C(=O)C=C(O)C1=O` [Embelin] + CC(=O)c1c(C)c2cnc(Nc3ccc(N4CCNCC4)cn3)nc2n(C2CCCC2)c1=O [Palbociclib] (partner 0.5 µM), the relative viability was found to be 0.644.

The same assay, now with this note: first compound 0.8 µM.
`CCCCCCCCCCCC1=C(O)C(=O)C=C(O)C1=O` [Embelin] + N=C(N)NC(=N)NCCc1ccccc1 [Phenformin] (partner 250 µM) gave a relative viability of 0.733.

The molecule `CCCCCCCCCCCC1=C(O)C(=O)C=C(O)C1=O` [Embelin] + CCNC(=O)c1noc(-c2cc(C(C)C)c(O)cc2O)c1-c1ccc(CN2CCOCC2)cc1 [Luminespib] (partner 0.01 µM) returned a relative viability of 0.138.

Consider `CCCCCCCCCCCC1=C(O)C(=O)C=C(O)C1=O` [Embelin] + Cc1nc(Nc2ncc(C(=O)Nc3c(C)cccc3Cl)s2)cc(N2CCN(CCO)CC2)n1 [Dasatinib] (partner 0.075 µM), for which the relative viability came out at 0.571.
